Data on 21 compounds can be found in patent US8349846B2, “Fused pyrimidine derivatives as TRPV3 modulators” (Glenmark Pharmaceuticals, S.A., priority 2008, dated 2013).

The test deals with T1, Human TRPV3 (Homo sapiens, UniProt Q8NET8).
T1 construct: expressed in transfected cells; host or cells: CHO cells (selected with G-418)
T1 sequence (Q8NET8 1-790): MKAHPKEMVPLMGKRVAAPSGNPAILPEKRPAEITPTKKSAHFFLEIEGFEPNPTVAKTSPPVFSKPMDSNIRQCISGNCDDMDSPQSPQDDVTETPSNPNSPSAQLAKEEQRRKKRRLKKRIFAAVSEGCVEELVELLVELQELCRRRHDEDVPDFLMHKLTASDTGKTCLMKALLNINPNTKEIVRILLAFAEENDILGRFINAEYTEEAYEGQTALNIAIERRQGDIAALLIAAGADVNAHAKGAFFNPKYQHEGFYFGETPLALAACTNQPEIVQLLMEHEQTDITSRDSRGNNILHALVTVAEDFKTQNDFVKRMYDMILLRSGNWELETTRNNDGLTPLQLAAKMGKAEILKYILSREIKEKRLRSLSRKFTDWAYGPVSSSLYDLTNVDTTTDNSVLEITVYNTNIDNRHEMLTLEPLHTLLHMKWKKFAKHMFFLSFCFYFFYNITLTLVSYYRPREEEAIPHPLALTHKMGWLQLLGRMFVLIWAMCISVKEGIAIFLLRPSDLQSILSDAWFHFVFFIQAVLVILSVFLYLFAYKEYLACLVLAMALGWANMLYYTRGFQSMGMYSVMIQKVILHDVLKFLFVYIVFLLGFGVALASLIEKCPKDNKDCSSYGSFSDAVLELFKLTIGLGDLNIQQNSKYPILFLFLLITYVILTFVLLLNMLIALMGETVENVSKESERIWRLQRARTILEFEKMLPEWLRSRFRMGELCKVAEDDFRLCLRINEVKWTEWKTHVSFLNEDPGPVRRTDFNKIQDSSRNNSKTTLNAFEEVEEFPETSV
Put plainly: Screening for TRPV3 antagonist using the 45Calcium uptake assay (inhibition of 2-APB induced cellular uptake of radioactive calcium). It is filed as cell-based. As to conditions: Human TRPV3 expressing CHO cells, 2-APB 500 μM; for inhibition at 1 µM / inhibition at 10 µM: CHO; for inhibition at 1 µM: read-out: Percentage inhibition at 1.0 μM; for inhibition at 10 µM: 10.0 μM test compound, read-out: Percentage inhibition at 10.0 μM. The text has this:
The illustrative examples of the present invention are screened for TRPV3 activity according to a modified procedure described in Tóth, A., Kedei, N., Wang, Y. and Blumberg, P. M. Life Sciences (2003), 73, 487-498. The screening of the compounds can be carried out by other methods and procedures known to a person skilled in the art. Such screening methods may be found in (a) Hu, H.-Z. et al. J. Biol. Chem. (2004), 279, 35741-35747; (b) Smith, G. D. et al. Nature (2002), 418, 186-190; (c) Peier, A. M. et al. Science (2002), 296, 2046-2049.
Screening for TRPV3 Antagonist Using the ^45Calcium Uptake Assay:
The inhibition of TRPV3 receptor activation was followed as inhibition of 2-aminoethxydiphenylborate (2-APB) induced cellular uptake of radioactive calcium. Test compounds were dissolved in dimethyl sulfoxide (DMSO) to prepare 20 mM stock solution and then diluted using plain medium with DMEM/F-12 containing 1.8 mM CaCl2 to get desired concentration. Final concentration of DMSO in the reaction was 0.5% (v/v). Human TRPV3 expressing CHO cells were grown in DMEM/F-12 medium with 10% FBS, 1% penicillin-streptomycin solution, 400 μg/ml of G-418. Cells were seeded 24 h prior to the assay in 96 well plates so as to get ˜50,000 cells per well on the day of experiment. Cells were treated with test compounds for 10 minutes followed by addition of 2-APB at a final concentration of 500 μM and 5 μCi/ml ^45Ca^+2 for 4 minutes. Cells were washed and lysed using buffer containing 1% Triton X-100, 0.1% deoxycholate and 0.1% SDS. Radioactivity in the lysate was measured in Packardt Top count after addition of liquid scintillant. Concentration response curves were plotted as a % of maximal response obtained in the absence of test antagonist. IC50 value was calculated from concentration response curve by nonlinear regression analysis using GraphPad PRISM software.
Percentage inhibition at concentrations of 1.0 μM and 10.0 μM are given in the table along with IC50 (nM) values for selected examples.

Where a name gives a salt, the structure may show the parent alone.

By inhibition is commonly meant the change of the read-out against control, counted positive when it falls. For `COc1cccc(/C=C/c2nc3ccccn3c(=O)c2-c2cccc(NC(C)=O)c2)c1OC1CCCC1` [Example 31, N-(3-{2-[(E)-2-(2-Cyclopentyloxy-3-methoxy)phenylvinyl]-4-oxo-4H-pyrido[1,2-a]pyrimidin-3-yl}phenyl)acetamide], the inhibition at 10 µM was 96.2%. Besides, the inhibition at 1 µM (1.0 μM test compound) stood at 50.4%.
As for `COc1cccc(/C=C/c2nc3ccccn3c(=O)c2-c2ccc(SC)cc2)c1OC1CCCC1` [Example 34, 2-{(E)-2-[(2-Cyclopentyloxy-3-methoxy)phenyl]vinyl}-3-(4-thiomethyl)phenyl-4H-pyrido[1,2-a]pyrimidin-4-one], the inhibition at 10 µM worked out at 51.3%. In addition, under “1.0 μM test compound”, the inhibition at 1 µM turned out to be 36.8%.
Consider `O=c1c(-c2ccc(C(F)(F)F)cc2)c(/C=C/c2cccnc2)nc2ccccn12` [Example 2, 2-{(E)-2-(Pyridin-3-yl)vinyl}-3-(4-trifluoromethyl)phenyl-4H-pyrido[1,2-a]pyrimidin-4-one], for which the inhibition at 10 µM is 11.2%. Where the note is “1.0 μM test compound”, the inhibition at 1 µM is 5.7%.
Taken in the same sequence, the figures for `COc1cccc(/C=C/c2nc3ccccn3c(=O)c2-c2ccncc2)c1OC1CCCC1` [Example 35, 2-{(E)-2-[2-(Cyclopentyloxy)-3-methoxyphenyl]vinyl}-3-pyridin-4-yl-4H-pyrido[1,2-a]-pyrimidin-4-one] were 63.3% and 18.4%.
The corresponding values for `CCCCOc1c(/C=C/c2nc3ccccn3c(=O)c2-c2ccc(C#N)cc2)cccc1OC` [Example 10] are 100% and 82.8%.
The IC50 is the concentration that inhibits the measured activity by half. Turning to `CCCCOc1c(/C=C/c2nc3ccccn3c(=O)c2-c2ccc(OC(F)(F)F)cc2)cccc1OC` [Example 9, 2-[(E)-2-[2-Butoxy-3-methoxyphenyl)vinyl]-3-[4-(trifluoromethoxy)phenyl]-4H-pyrido-[1,2-a]pyrimidin-4-one], the inhibition at 10 µM came out at 89% and the IC50 was in the range of 500 to 1000 nM. The inhibition at 1 µM (1.0 μM test compound) is 74.6%.
`COc1cccc(/C=C/c2nc3ccccn3c(=O)c2-c2ccc3ncccc3c2)c1OC1CCCC1` [Example 39, 2-[(E)-2-(2-Cyclopentyloxy-3-methoxy)phenylvinyl]-3-quinolin-6-yl-4H-pyrido[1,2-a]pyrimidin-4-one]: the inhibition at 10 µM was 96.1% and the 50% inhibitory concentration (IC50) was less than 500 nM. Also, the inhibition at 1 µM (1.0 μM test compound) was determined as 84.6%.
On to `COc1cccc(/C=C/c2nc3c(C)cccn3c(=O)c2-c2ccc(C(F)(F)F)cc2)c1OC1CCCC1` [Example 40, 2-{(E)-2-[(2-Cyclopentyloxy-3-methoxy)phenyl]vinyl}-9-methyl-3-(4-trifluoromethyl)phenyl-4H-pyrido[1,2-a]pyrimidin-4-one], for which the inhibition at 10 µM was 18.7%. The inhibition at 1 µM (1.0 μM test compound) was 23.1%.
Regarding `COc1cccc(/C=C/c2nc3ccccn3c(=O)c2-c2ccc(C#N)cc2)c1OC1CCCC1` [Example 5, 4-{2-[(E)-2-[2-(Cyclopentyloxy)-3-methoxyphenyl)vinyl]-4-oxo-4H-pyrido[1,2-a]pyrimidin-3-yl}benzonitrile], the inhibition at 10 µM came to 76.2%. Also, the “Percentage inhibition at 1.0 μM” value (1.0 μM test compound) was 41.6%.
On to `COc1cccc(/C=C/c2nc3ccccn3c(=O)c2-c2ccc(C#N)cc2)c1OCC1CC1` [Example 19], for which the inhibition at 10 µM is 98.7% and the concentration for half-maximal inhibition (IC50) was less than 500 nM. Besides, the inhibition at 1 µM (1.0 μM test compound) is 87.8%.
The corresponding values for `COc1cccc(/C=C/c2nc3ccccn3c(=O)c2-c2ccc(C(C)=O)cc2)c1OC1CCCC1` [Example 33, 3-(4-Acetylphenyl)-2-[(E)-2-(2-cyclopentyloxy-3-methoxy)phenylvinyl]-4H-pyrido[1,2-a]pyrimidin-4-one] are 94.3%, less than 500 nM and 78%.
For `COc1cccc(/C=C/c2nc3ccccn3c(=O)c2-c2ccc(C(F)(F)F)cc2)c1OCCN(C)C` [Example 15, 2-[(E)-2-{2-[2-(Dimethylamino)ethoxy]-3-methoxyphenyl}vinyl]-3-(4-trifluoromethylphenyl)-4H-pyrido[1,2-a]pyrimidin-4-one hydrochloride], the inhibition at 10 µM is 31.7%. The inhibition at 1 µM (1.0 μM test compound) was determined as 0%.
`COc1cccc(/C=C/c2nc3ccccn3c(=O)c2-c2cccc(O)c2)c1OC1CCCC1` [Example 25, 2-{(E)-2-[2-(Cyclopentyloxy-3-methoxy)phenyl]vinyl}-3-(3-hydroxy)phenyl-4H-pyrido-[1,2-a]-pyrimidin-4-one]: the inhibition at 10 µM is 93.1% and the IC50 fell in the range of 1000 to 2500 nM. For the same compound, for the setting “1.0 μM test compound”, the inhibition at 1 µM came to 20.7%.
The corresponding values for `O=c1c(-c2ccc(C(F)(F)F)cc2)c(/C=C/c2cccs2)nc2ccccn12` [Example 3, 2-[(E)-2-(2-Thienyl)vinyl]-3-[4-(trifluoromethyl)phenyl]-4H-pyrido[1,2-a]pyrimidin-4-one] are 77.9%, 1000 to 2500 nM and 14.4%.
On to `COc1cccc(/C=C/c2nc3ccccn3c(=O)c2-c2cc(F)cc(F)c2)c1OC1CCCC1` [Example 21, 2-{(E)-2-[2-(Cyclopentyloxy-3-methoxy)phenyl]vinyl}-3-(3,5-difluoro) phenyl-4H-pyrido[1,2-a]pyrimidin-4-one], for which the inhibition at 10 µM was 39.3%. Also, the inhibition at 1 µM (1.0 μM test compound) is 27.2%.
In the case of `COc1cccc(-c2c(/C=C/c3cccc(OC)c3OC3CCCC3)nc3ccccn3c2=O)c1` [Example 26, 2-{(E)-2-[(2-Cyclopentyloxy-3-methoxy)phenyl]vinyl}-3-(3-methoxy)phenyl-4H-pyrido-[1,2-a]pyrimidin-4-one], the inhibition at 10 µM was 69.3%. Also, the inhibition at 1 µM (1.0 μM test compound) was 48%.
Regarding `CCCCCCOc1c(/C=C/c2nc3ccccn3c(=O)c2-c2ccc(C(F)(F)F)cc2)cccc1OC` [Example 13], the inhibition at 10 µM came out at 77.3%. The inhibition at 1 µM (1.0 μM test compound) is 58%.
With `COc1cccc(/C=C/c2nc3ccccn3c(=O)c2-c2ccccc2)c1OCC1CC1` [Example 16, 2-{(E)-2-[2-(Cyclopropylmethoxy)-3-methoxyphenyl]vinyl}-3-phenyl-4H-pyrido[1,2-a]-pyrimidin-4-one], the inhibition at 10 µM is 79.8%. The inhibition at 1 µM (1.0 μM test compound) came to 33.8%.
Taken in the same sequence, the figures for `COc1cccc(/C=C/c2nc3ccccn3c(=O)c2-c2ccc(C(=O)O)cc2)c1OC1CCCC1` [Example 29, 4-{4-Oxo-2-[(E)-2-(2-cyclopentyloxy-3-methoxy)phenylvinyl]-4H-pyrido[1,2-a]pyrimidin-3-yl}benzoic acid] were 0.2% and 0%.
Turning to `COc1cccc(/C=C/c2nc3ccccn3c(=O)c2-c2ccc(C(F)(F)F)cc2)c1OCC1CC1` [Example 17], the inhibition at 10 µM is 95.3% and the IC50 is less than 500 nM. Where the note is “1.0 μM test compound”, the inhibition at 1 µM was 83.3%.
For `O=c1c(-c2ccccc2)c(/C=C/c2ccc(Cl)cc2)nc2ccccn12` [Example 1, 2-[(E)-2-(4-Chlorophenyl)vinyl]-3-phenyl-4H-pyrido[1,2-a]pyrimidin-4-one], the inhibition at 10 µM came to 19.4%. The inhibition at 1 µM (1.0 μM test compound) worked out at 0.5%.
